What was measured:
[1] = target: T1, Dihydrofolate reductase (Pneumocystis carinii, UniProt P16184)
T1 sequence (P16184 whole entry): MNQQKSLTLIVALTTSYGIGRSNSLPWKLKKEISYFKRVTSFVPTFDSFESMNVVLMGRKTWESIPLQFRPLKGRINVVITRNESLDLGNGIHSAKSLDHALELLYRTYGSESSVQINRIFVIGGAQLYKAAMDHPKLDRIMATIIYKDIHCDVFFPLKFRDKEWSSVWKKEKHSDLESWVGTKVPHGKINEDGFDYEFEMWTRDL
Description: Inhibitory concentration against Pneumocystis carinii Dihydrofolate reductase

[2] = target: T2, Dihydrofolate reductase (Rattus norvegicus, UniProt Q920D2)
T2 sequence (Q920D2 whole entry): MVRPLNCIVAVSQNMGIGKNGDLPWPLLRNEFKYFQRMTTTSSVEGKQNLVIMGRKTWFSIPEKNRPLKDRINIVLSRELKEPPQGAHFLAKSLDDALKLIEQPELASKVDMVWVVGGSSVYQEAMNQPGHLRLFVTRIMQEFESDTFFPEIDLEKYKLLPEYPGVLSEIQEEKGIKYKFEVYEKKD
Description: Inhibitory concentration against Rat liver Dihydrofolate reductase

[3] = target: T3, Bifunctional dihydrofolate reductase-thymidylate synthase (Toxoplasma gondii, UniProt Q07422); assay: Inhibitory concentration against Toxoplasma gondii Dihydrofolate reductase
T3 sequence (Q07422 whole entry): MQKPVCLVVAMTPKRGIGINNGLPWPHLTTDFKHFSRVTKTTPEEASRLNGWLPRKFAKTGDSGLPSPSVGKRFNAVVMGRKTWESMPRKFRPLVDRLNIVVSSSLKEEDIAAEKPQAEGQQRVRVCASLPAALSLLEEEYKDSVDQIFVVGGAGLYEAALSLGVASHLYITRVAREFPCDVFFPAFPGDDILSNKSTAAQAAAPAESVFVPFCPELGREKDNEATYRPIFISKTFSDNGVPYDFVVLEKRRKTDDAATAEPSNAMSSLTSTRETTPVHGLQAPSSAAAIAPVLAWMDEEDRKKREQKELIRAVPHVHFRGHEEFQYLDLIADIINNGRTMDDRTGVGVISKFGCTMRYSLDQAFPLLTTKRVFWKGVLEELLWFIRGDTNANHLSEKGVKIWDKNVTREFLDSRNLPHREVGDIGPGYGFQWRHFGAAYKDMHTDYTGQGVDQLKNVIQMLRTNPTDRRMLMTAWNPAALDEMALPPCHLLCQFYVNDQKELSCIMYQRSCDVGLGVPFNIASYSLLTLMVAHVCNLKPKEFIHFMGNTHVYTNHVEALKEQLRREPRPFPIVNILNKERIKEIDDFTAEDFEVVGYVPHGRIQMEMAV

Row | IC50 [1] [nM] | Structure (SMILES) | IC50 [2] [nM] | IC50 [3] [nM]
1 | > 2270 | COc1cc(N2CCc3c(cnc4nc(N)nc(N)c34)C2)cc(OC)c1OC | > 2700 | –
2 | – | COc1c(Cl)c(-n2ccc3c4c(N)nc(N)nc4nc(=O)c-3c2)c(Cl)c(OC)c1OC | 500 | –
3 | > 5000 | COc1cc(N2CCc3c(c(=O)[nH]c4nc(N)nc(N)c34)C2)cc(OC)c1OC | > 5000 | –
4 | – | COc1cc(N2C=Cc3c(cnc4nc(N)nc(N)c34)C2)cc(OC)c1OC | 470 | 760
5 | – | COc1cc(N2CCC3c4c(N)nc(N)nc4NCC3C2)cc(OC)c1OC (centres undefined) | 160 | 290
6 | – | COc1cc(N2C=C3C(=O)N=c4nc(N)nc(N)c4=C3CC2)cc(OC)c1OC | 240 | 1120

Row | Structure (SMILES) | IC50 [1] [nM] | IC50 [2] [nM] | IC50 [3] [nM]
7 | COc1cc(-n2ccc3c4c(N)nc(N)nc4nc(=O)c-3c2)cc(OC)c1OC | 2400 | 86 | 520

From ChEMBL document CHEMBL1130385, “Synthesis and biological activities of conformationally restricted, tricyclic nonclassical antifolates as inhibitors of dihydrofolate reductases” (J Med Chem, 1997)
